Assay [1] in a line: Inhibition of CXCR2-mediated chemotaxis in Ba/F3 cells expressing human CXCR2.
Assay [2] is described as follows: Inhibition of CXCR1-mediated chemotaxis in Ba/F3 cells expressing human CXCR1.

Structures are written as SMILES.

Consider `CC[C@@H](Nc1c(Nc2cccc(C(=O)N(C)C)c2O)c(=O)c1=O)c1ccccn1` [(R)-3-(3,4-dioxo-2-(1-(pyridin-2-yl)propylamino)cyclobut-1-enylamino)-2-hydroxy-N,N-dimethylbenzamide], for which half-maximal inhibition in assay [1] (IC50) was put at 4.5 nM.

`CC[C@@H](Nc1c(Nc2cccc(C(=O)N(C)C)c2O)c(=O)c1=O)c1cc(Br)co1` [(R)-3-(2-(1-(4-bromofuran-2-yl)propylamino)-3,4-dioxocyclobut-1-enylamino)-2-hydroxy-N,N-dimethylbenzamide]: the values for the IC50 in assay [2] and in assay [1] were 917 nM and 2 nM, respectively.

Regarding `CC[C@@H](Nc1c(Nc2cccc(C(=O)N(C)C)c2O)c(=O)c1=O)c1cc(C)on1` [(R)-2-hydroxy-N,N-dimethyl-3-(2-(1-(5-methylisoxazol-3-yl)propylamino)-3,4-dioxocyclobut-1-enylamino)benzamide], in assay [1], the IC50 (usually the point on the concentration scale where inhibition reaches its midpoint) was 12.2 nM.

(Values after BindingDB's records for doi:10.1016/j.bmcl.2008.01.024 (Schering-Plough Research Institute, 2008).)
